The record followed here is patent US20120149775A1, “METHODS FOR PREVENTING AND IMPROVING SKIN ELASTIC PROPERTY LOSS” (SHISEIDO COMPANY, LTD., priority 2010, published 2012).

Format in all cases: cell-based
One assay has as its system mouse 3T3-L1 cell. Description: Mouse fibroblast proliferation (alamar Blue). Conditions: 48 hours. As to the method:
The cell employed was a mouse 3T3-L1 cell. This cell was inoculated. at 3×10^4 cells/mL to a commercially available 24-well culture plate (353047, FALCON, Becton, Dickinson and Company Japan), where it was cultured in a commercially available cell culture medium (D-MEM, 11885084, GIBCO, Life Technologies Japan Ltd.) supplemented with 10% bovine serum (16010159, GIBCO, Life Technologies Japan Ltd.). The cell was cultured for about 6 hours in 5% CO2 and saturated water vapor atmosphere at 37° C. Thereafter, the culture medium for culturing the mouse fibroblast was switched to a medium which was the above-mentioned cell culture medium supplemented with 0.5% bovine serum (hereinafter referred to as “mouse fibroblast proliferation evaluation medium”), where the mouse fibroblast was cultured for 12 hours in 5% CO2 and saturated water vapor atmosphere at 37° C. When investigating the effects of saturated and unsaturated fatty acids on the proliferation of the fibroblast, 5 μM and 10 μM palmitic acid (S-33, Wako Pure Chemical Industries, Ltd.), 5 μM and 10 μM oleic acid (07501, Sigma Aldrich Japan K.K.) or 1 μM, 3 μM and 10 μM stearic acid ([…], Sigma Aldrich Japan. K.K.) was added after 12 hours to the mouse fibroblast proliferation evaluation medium), and the fibroblast was cultured for 48 hours in 5% CO2 and saturated water vapor atmosphere at 37° C. As a control, the cell was cultured in a culture medium without these saturated fatty acids and unsaturated fatty acid. […] The cell proliferation rate (%) was calculated as a percentage of the quotient obtained by dividing the fluorescent intensity of the alamar Blue under each experiment condition by the fluorescent intensity in the control group supplemented with no saturated or unsaturated fatty acids.

For assay [1], the system named is type I collagen α chain gene expression. The assay is described as follows: Type I collagen α chain gene expression in mouse fibroblast (real-time PCR). Conditions: for suppressive effect on the gene expression of type I collagen α chain: data not shown. Here is the method: (§1) The cell culture and the addition of palmitic acid were conducted similarly to Example 1. The mouse fibroblast was inoculated to and incubated in a commercially available 12-well culture plate (353043, FALCON, Becton, Dickinson and Company Japan) at 3×10^4 cells/mL. The culture medium was removed using an aspirator, and each well was washed twice with each 2 ml of PBS. An RNA was extracted from each cell in each well using an RNeasy Protect Kit (74104, Qiagen) according to Manufacturer's instructions. A cDNA was produced according to a standard method and used in a real-time PCR. This real-time PCR employed LightCycler (registered trademark) FastStart DNA Master^PLUS SYBR Green I (Catalog No. 03 515 885 001, Roche Diagnostic K.K.). For amplifying type I collagen α chain, elastin, matrix metalloproteinase 13 and 28S rRNA genes, the forward and reverse primers of SEQ ID NO: 1 and 2, SEQ ID NO: 3 and 4, SEQ ID NO: 5 and 6 and SEQ ID NO: 7 and 8, respectively, were employed. The PCR was conducted under a reaction condition involving 1 cycle of 95° C. for 10 minutes and 35 cycles of 95° C. for 15 seconds, 60° C. for 5 seconds and 72° C. for 5 seconds. The expression levels of type I collagen α chain, elastin and matrix metalloproteinase 13 gene were analyzed by using LightCycler Software Ver. 3.5 (Roche Diagnostic K.K.) and normalized on the basis of the expression level of 28S rRNA. The gene expressions level of the type I collagen α chain, elastin and matrix metalloproteinase 13 were calculated as percentages of the quotients obtained by dividing the gene expression rates (%) under each experimental condition by the gene expression levels in the control groups containing no palmitic acid.

Assay [2] deals with elastin gene expression. The assay is described as follows: Elastin gene expression in mouse fibroblast (real-time PCR). Conditions: for suppressive effect on the gene expression of elastin: data not shown. Here is the method:
as §1
In general terms: In qPCR the cycle at which signal appears reflects the starting amount.

For assay [3], the system named is matrix metalloproteinase 13 gene expression. The assay is described as follows: Matrix metalloproteinase 13 gene expression in mouse fibroblast (real-time PCR). Conditions: for promotive effect on the gene expression of matrix metalloproteinase 13: data not shown. Here is the method:
as §1

The test system of another assay is human fibroblast. Description: Human fibroblast proliferation (alamar Blue). Conditions: 5 μM to 30 μM, dependent on concentration (FIG. 7). Here is the method: Thereafter, alamar Blue (Trade mark, DAL1025, Invitrogen, Life Technologies Japan Ltd.) was added to the culture medium at a final concentration of 10%, and its supernatant was examined for the fluorescent intensity 2 hours later with an excitation wavelength of 544 nm and a fluorescent intensity of 590 nm in accordance with the manufacture's instruction. The cell proliferation rate (%) was calculated as a percentage of the quotient obtained by dividing the fluorescent intensity of the alamar Blue under each experiment condition by the fluorescent intensity in the control group supplemented with no saturated or unsaturated fatty acids. The cell culture, the addition of palmitic acid and the determination of the % of proliferation of the fibroblast were conducted similarly to Example 1. The human fibroblast (CC-2509, Lonza Japan Ltd.) was incubated for 6 hours in a commercially available cell culture medium (D-MEM, 11885084, GIBCO, Life Technologies Japan Ltd.) supplemented with 10% of fetal bovine serum (FBS) (Biowest). Thereafter, the culture medium for incubating the human fibroblast was switched to the cell culture medium supplemented with 0.5% of fetal bovine serum (hereinafter referred to as “human fibroblast proliferation evaluation medium”) and the human fibroblast was incubated at 37° C. and 5% CO2 under a saturated water vapor atmosphere for 12 hours. […]
For orientation: Resazurin is reduced to fluorescent resorufin, in cell work by metabolically active cells.

For assay [4], the system named is type I collagen α chain gene expression. The assay is described as follows: Type I collagen α chain gene expression in human fibroblast (real-time PCR). Conditions: 10 μM and 30 μM, dependent on concentration (FIG. 8). Here is the method:
(§2) The culture medium was removed using an aspirator, and each well was washed twice with each 2 ml of PBS. An RNA was extracted from each cell in each well using an RNeasy Protect Kit (74104, Qiagen) according to Manufacturer's instructions. A cDNA was produced according to a standard method and used in a real-time PCR. This real-time PCR employed LightCycler (registered trademark) FastStart DNA Master^PLUS SYBR Green I (Catalog No. 03 515 885 001, Roche Diagnostic K.K.). […] The expression levels of type I collagen α chain, elastin and matrix metalloproteinase 13 gene were analyzed by using LightCycler Software Ver. […] The gene expressions level of the type I collagen α chain, elastin and matrix metalloproteinase 13 were calculated as percentages of the quotients obtained by dividing the gene expression rates (%) under each experimental condition by the gene expression levels in the control groups containing no palmitic acid. […] The quantification of gene expression was conducted similarly to Example 2. […] The % gene expressions of the type I collagen α chain, elastin and matrix metalloproteinase 1 were calculated as percentages of the quotients obtained by dividing the gene expression levels under each experimental condition by the gene expression levels in the control groups containing no palmitic acid.

Assay [5] deals with elastin gene expression. The assay is described as follows: Elastin gene expression in human fibroblast (real-time PCR). Conditions: 3 μM to 30 μM, dependent on concentration (FIG. 9). Here is the method:
as §2

Assay [6] concerns matrix metalloproteinase 1 gene expression. Description: Matrix metalloproteinase 1 gene expression in human fibroblast (real-time PCR). Conditions: 10 μM and 30 μM, dependent on concentration (FIG. 10). As to the method: as §2
A further assay deals with mouse fibroblast. Description: Effect of EPA and palmitic acid on fibroblast proliferation (alamar Blue). Conditions: palmitic acid at 10 μM alone (FIG. 11). As to the method:
The cell employed was a mouse 3T3-L1 cell. This cell was inoculated. at 3×10^4 cells/mL to a commercially available 24-well culture plate (353047, FALCON, Becton, Dickinson and Company Japan), where it was cultured in a commercially available cell culture medium (D-MEM, 11885084, GIBCO, Life Technologies Japan Ltd.) supplemented with 10% bovine serum (16010159, GIBCO, Life Technologies Japan Ltd.). The cell was cultured for about 6 hours in 5% CO2 and saturated water vapor atmosphere at 37° C. Thereafter, the culture medium for culturing the mouse fibroblast was switched to a medium which was the above-mentioned cell culture medium supplemented with 0.5% bovine serum (hereinafter referred to as “mouse fibroblast proliferation evaluation medium”), where the mouse fibroblast was cultured for 12 hours in 5% CO2 and saturated water vapor atmosphere at 37° C. […] The cell proliferation rate (%) was calculated as a percentage of the quotient obtained by dividing the fluorescent intensity of the alamar Blue under each experiment condition by the fluorescent intensity in the control group supplemented with no saturated or unsaturated fatty acids. […]

SMILES strings stand for the structures.

Consider `CCCCCCCCCCCCCCCC(=O)O` [palmitic acid], for which the cell proliferation result in the assay with mouse 3T3-L1 cell (10 μM, vs control (FIG. 1)) is “statistically significant reduction”; in the assay on human fibroblast it was “statistically significant reduction”; in the assay on mouse fibroblast, “reduced markedly”. The “type I collagen α chain gene expression” value is “statistically significant reduction” in assay [1] (10 μM, vs control (FIG. 4)) and “statistically significant reduction” in assay [4]. Besides, the elastin gene expression entry in the assay on elastin gene expression [2] (10 μM, vs control (FIG. 5)) is listed as “statistically significant reduction”; with elastin gene expression [5], “statistically significant reduction”. Further, the “matrix metalloproteinase 13 gene expression” value in assay [3] (10 μM, vs control (FIG. 6)) is reported as “statistically significant increase”. The “matrix metalloproteinase 1 gene expression” value in assay [6] is “statistically significant increase”.
As for `CCCCCCCCCCCCCCCCCC(=O)O` [stearic acid], the cell proliferation result in the assay with mouse 3T3-L1 cell (1 μM to 10 μM, vs control (FIG. 3)) is reported as “no statistically significant reduction”. For the same molecule, the “suppressive effect on the gene expression of type I collagen α chain” value in assay [1] is reported as “did not have a suppressive effect”. The “suppressive effect on the gene expression of elastin” value in the assay on elastin gene expression [2] was “did not have a suppressive effect”. Besides, the “promotive effect on the gene expression of matrix metalloproteinase 13” value in assay [3] is “did not have”.
For the molecule `CCCCCCCC/C=C\CCCCCCCC(=O)O` [oleic acid], the cell proliferation entry with mouse 3T3-L1 cell (5 μM and 10 μM, vs control (FIG. 2)) was “statistically significant reduction”. The “suppressive effect on the gene expression of type I collagen α chain” value in assay [1] was “did not have a suppressive effect”. The “suppressive effect on the gene expression of elastin” value in the assay on elastin gene expression [2] is recorded as “did not have a suppressive effect”. The “promotive effect on the gene expression of matrix metalloproteinase 13” value in assay [3] was “did not have”.
